Measurements: ChEMBL document CHEMBL1201861, “Genomics of Drug Sensitity in Cancer screening data, Wellcome Trust Sanger Institute”

Each compound was assayed on CTB-1 (assay: cells). Settings: Homo sapiens, CTB-1.
Assay type: functional, cell-based, Homo sapiens
Description: SANGER: Inhibition of human CTB-1 cell growth in a cell viability assay.

| SMILES | IC50 [µM] |
| --- | --- |
| Cc1cc(N2CCOCC2)cc2[nH]c(-c3c(NC[C@@H](O)c4cccc(Cl)c4)cc[nH]c3=O)nc12 | > 5.12 |

What follows are compounds tested on Calu-6 (assay: cells). Settings: Homo sapiens, Calu-6.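 Further: growth of human Calu-6 cells, read out by a cell viability assay, IC50 marking inhibition.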
Assay type: functional, cell-based, Homo sapiens
Description: SANGER: Inhibition of human Calu-6 cell growth in a cell viability assay.

| SMILES | IC50 [µM] |
| --- | --- |
| Cc1cc(N2CCOCC2)cc2[nH]c(-c3c(NC[C@@H](O)c4cccc(Cl)c4)cc[nH]c3=O)nc12 | > 5.12 |

Each compound was assayed on D-502MG (assay: cells). Settings: Homo sapiens, D-502MG.
Assay type: functional, cell-based, Homo sapiens
Description: SANGER: Inhibition of human D-502MG cell growth in a cell viability assay.

| SMILES | IC50 [µM] |
| --- | --- |
| Cc1cc(N2CCOCC2)cc2[nH]c(-c3c(NC[C@@H](O)c4cccc(Cl)c4)cc[nH]c3=O)nc12 | > 5.12 |

These compounds were tested on DB (assay: cells). Settings: Homo sapiens, DB.
Assay type: functional, cell-based, Homo sapiens
Description: SANGER: Inhibition of human DB cell growth in a cell viability assay.

| SMILES | IC50 [µM] |
| --- | --- |
| Cc1cc(N2CCOCC2)cc2[nH]c(-c3c(NC[C@@H](O)c4cccc(Cl)c4)cc[nH]c3=O)nc12 | > 5.12 |

Each compound was assayed on DEL (assay: cells). Settings: Homo sapiens, DEL.
Assay type: functional, cell-based, Homo sapiens
Description: SANGER: Inhibition of human DEL cell growth in a cell viability assay.

| SMILES | IC50 [µM] |
| --- | --- |
| Cc1cc(N2CCOCC2)cc2[nH]c(-c3c(NC[C@@H](O)c4cccc(Cl)c4)cc[nH]c3=O)nc12 | 2.7 |

The compounds below were run on EM-2 (assay: cells). Settings: Homo sapiens, EM-2.
Assay type: functional, cell-based, Homo sapiens
Description: SANGER: Inhibition of human EM-2 cell growth in a cell viability assay.

| SMILES | IC50 [µM] |
| --- | --- |
| Cc1cc(N2CCOCC2)cc2[nH]c(-c3c(NC[C@@H](O)c4cccc(Cl)c4)cc[nH]c3=O)nc12 | > 5.12 |

Each compound was assayed on ES5 (assay: cells). Settings: Homo sapiens, ES5.
Assay type: functional, cell-based, Homo sapiens
Description: SANGER: Inhibition of human ES5 cell growth in a cell viability assay.

| SMILES | IC50 [µM] |
| --- | --- |
| Cc1cc(N2CCOCC2)cc2[nH]c(-c3c(NC[C@@H](O)c4cccc(Cl)c4)cc[nH]c3=O)nc12 | > 5.12 |

What follows are compounds tested on ES6 (assay: cells). Settings: Homo sapiens.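 Further: growth inhibition of human ES6 cells, read out with a cell viability assay.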
Assay type: functional, cell-based
Description: SANGER: Inhibition of human ES6 cell growth in a cell viability assay.

| SMILES | IC50 [µM] |
| --- | --- |
| Cc1cc(N2CCOCC2)cc2[nH]c(-c3c(NC[C@@H](O)c4cccc(Cl)c4)cc[nH]c3=O)nc12 | 0.425 |

These compounds were tested on ES8 (assay: cells). Settings: Homo sapiens, ES8.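 Further: growth inhibition of human ES8 cells, read out with a cell viability assay.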
Assay type: functional, cell-based, Homo sapiens
Description: SANGER: Inhibition of human ES8 cell growth in a cell viability assay.

| SMILES | IC50 [µM] |
| --- | --- |
| Cc1cc(N2CCOCC2)cc2[nH]c(-c3c(NC[C@@H](O)c4cccc(Cl)c4)cc[nH]c3=O)nc12 | 2.3 |

These compounds were tested on EW-13 (assay: cells). Settings: Homo sapiens, EW-13; read-out: IC50.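 Further: growth inhibition of EW-13 cells, read out with a cell viability assay.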
Assay type: functional, cell-based, Homo sapiens
Description: SANGER: Inhibition of human EW-13 cell growth in a cell viability assay.

| SMILES | IC50 [µM] |
| --- | --- |
| Cc1cc(N2CCOCC2)cc2[nH]c(-c3c(NC[C@@H](O)c4cccc(Cl)c4)cc[nH]c3=O)nc12 | > 5.12 |

What follows are compounds tested on GAK (assay: cells). Settings: Homo sapiens, GAK.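 Further: cell growth inhibition read out by a cell viability assay.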
Assay type: functional, cell-based, Homo sapiens
Description: SANGER: Inhibition of human GAK cell growth in a cell viability assay.

| SMILES | IC50 [µM] |
| --- | --- |
| Cc1cc(N2CCOCC2)cc2[nH]c(-c3c(NC[C@@H](O)c4cccc(Cl)c4)cc[nH]c3=O)nc12 | > 5.12 |

These compounds were tested on HDLM-2 (assay: cells). Settings: Homo sapiens, HDLM-2.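 Further: cell viability assay measuring suppression of HDLM-2 proliferation.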
Assay type: functional, cell-based, Homo sapiens
Description: SANGER: Inhibition of human HDLM-2 cell growth in a cell viability assay.

| SMILES | IC50 [µM] |
| --- | --- |
| Cc1cc(N2CCOCC2)cc2[nH]c(-c3c(NC[C@@H](O)c4cccc(Cl)c4)cc[nH]c3=O)nc12 | > 5.12 |

What follows are compounds tested on HT-144 (assay: cells). Settings: Homo sapiens, HT-144.
Assay type: functional, cell-based, Homo sapiens
Description: SANGER: Inhibition of human HT-144 cell growth in a cell viability assay.

| SMILES | IC50 [µM] |
| --- | --- |
| Cc1cc(N2CCOCC2)cc2[nH]c(-c3c(NC[C@@H](O)c4cccc(Cl)c4)cc[nH]c3=O)nc12 | 1.82 |

These compounds were tested on IST-MEL1 (assay: cells). Settings: Homo sapiens, IST-MEL1.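 Further: growth inhibition of the cell line, read out with a cell viability assay.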
Assay type: functional, cell-based, Homo sapiens
Description: SANGER: Inhibition of human IST-MEL1 cell growth in a cell viability assay.

| SMILES | IC50 [µM] |
| --- | --- |
| Cc1cc(N2CCOCC2)cc2[nH]c(-c3c(NC[C@@H](O)c4cccc(Cl)c4)cc[nH]c3=O)nc12 | 4.6 |

The compounds below were run on K5 (assay: cells). Settings: Homo sapiens, K5.
Assay type: functional, cell-based, Homo sapiens
Description: SANGER: Inhibition of human K5 cell growth in a cell viability assay.

| SMILES | IC50 [µM] |
| --- | --- |
| Cc1cc(N2CCOCC2)cc2[nH]c(-c3c(NC[C@@H](O)c4cccc(Cl)c4)cc[nH]c3=O)nc12 | 1.78 |

These compounds were tested on L-428 (assay: cells). Settings: Homo sapiens, L-428.
Assay type: functional, cell-based, Homo sapiens
Description: SANGER: Inhibition of human L-428 cell growth in a cell viability assay.

| SMILES | IC50 [µM] |
| --- | --- |
| Cc1cc(N2CCOCC2)cc2[nH]c(-c3c(NC[C@@H](O)c4cccc(Cl)c4)cc[nH]c3=O)nc12 | > 5.12 |

These compounds were tested on LB2518-MEL (assay: cells). Settings: Homo sapiens.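 Further: growth inhibition of human LB2518-MEL cells, measured with a cell viability assay.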
Assay type: functional, cell-based
Description: SANGER: Inhibition of human LB2518-MEL cell growth in a cell viability assay.

| SMILES | IC50 [µM] |
| --- | --- |
| Cc1cc(N2CCOCC2)cc2[nH]c(-c3c(NC[C@@H](O)c4cccc(Cl)c4)cc[nH]c3=O)nc12 | > 5.12 |

Each compound was assayed on LB831-BLC (assay: cells). Settings: Homo sapiens, LB831-BLC.
Assay type: functional, cell-based, Homo sapiens
Description: SANGER: Inhibition of human LB831-BLC cell growth in a cell viability assay.

| SMILES | IC50 [µM] |
| --- | --- |
| Cc1cc(N2CCOCC2)cc2[nH]c(-c3c(NC[C@@H](O)c4cccc(Cl)c4)cc[nH]c3=O)nc12 | 1.5 |

Each compound was assayed on LB996-RCC (assay: cells). Settings: Homo sapiens, LB996-RCC.
Assay type: functional, cell-based, Homo sapiens
Description: SANGER: Inhibition of human LB996-RCC cell growth in a cell viability assay.

| SMILES | IC50 [µM] |
| --- | --- |
| Cc1cc(N2CCOCC2)cc2[nH]c(-c3c(NC[C@@H](O)c4cccc(Cl)c4)cc[nH]c3=O)nc12 | 0.816 |

These compounds were tested on LS-123 (assay: cells). Settings: Homo sapiens, LS-123.
Assay type: functional, cell-based, Homo sapiens
Description: SANGER: Inhibition of human LS-123 cell growth in a cell viability assay.

| SMILES | IC50 [µM] |
| --- | --- |
| Cc1cc(N2CCOCC2)cc2[nH]c(-c3c(NC[C@@H](O)c4cccc(Cl)c4)cc[nH]c3=O)nc12 | > 5.12 |

These compounds were tested on LXF-289 cell line (assay: cells). Settings: Homo sapiens.
Assay type: functional, cell-based
Description: SANGER: Inhibition of human LXF-289 cell growth in a cell viability assay.

| SMILES | IC50 [µM] |
| --- | --- |
| Cc1cc(N2CCOCC2)cc2[nH]c(-c3c(NC[C@@H](O)c4cccc(Cl)c4)cc[nH]c3=O)nc12 | 1.55 |

What follows are compounds tested on MEG-01 (assay: cells). Settings: Homo sapiens, MEG-01.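 Further: growth inhibition of MEG-01 cells, read out by a cell viability assay.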
Assay type: functional, cell-based, Homo sapiens
Description: SANGER: Inhibition of human MEG-01 cell growth in a cell viability assay.

| SMILES | IC50 [µM] |
| --- | --- |
| Cc1cc(N2CCOCC2)cc2[nH]c(-c3c(NC[C@@H](O)c4cccc(Cl)c4)cc[nH]c3=O)nc12 | 4.21 |

What follows are compounds tested on MHH-NB-11 (assay: cells). Settings: Homo sapiens, MHH-NB-11.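 Further: growth inhibition of human MHH-NB-11 cells, read out by a cell viability assay.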
Assay type: functional, cell-based, Homo sapiens
Description: SANGER: Inhibition of human MHH-NB-11 cell growth in a cell viability assay.

| SMILES | IC50 [µM] |
| --- | --- |
| Cc1cc(N2CCOCC2)cc2[nH]c(-c3c(NC[C@@H](O)c4cccc(Cl)c4)cc[nH]c3=O)nc12 | > 5.12 |

What follows are compounds tested on ML-2 (assay: cells). Settings: Homo sapiens, ML-2.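 Further: growth inhibition of ML-2 cells, measured with a cell viability readout.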
Assay type: functional, cell-based, Homo sapiens
Description: SANGER: Inhibition of human ML-2 cell growth in a cell viability assay.

| SMILES | IC50 [µM] |
| --- | --- |
| Cc1cc(N2CCOCC2)cc2[nH]c(-c3c(NC[C@@H](O)c4cccc(Cl)c4)cc[nH]c3=O)nc12 | 0.192 |

These compounds were tested on MOLT-4 (assay: cells). Settings: Homo sapiens, MOLT-4.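 Further: growth inhibition of MOLT-4 cells, determined with a cell viability readout.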
Assay type: functional, cell-based, Homo sapiens
Description: SANGER: Inhibition of human MOLT-4 cell growth in a cell viability assay.

| SMILES | IC50 [µM] |
| --- | --- |
| Cc1cc(N2CCOCC2)cc2[nH]c(-c3c(NC[C@@H](O)c4cccc(Cl)c4)cc[nH]c3=O)nc12 | 4.58 |
